# In patent US8697715B2, “Serine/threonine kinase inhibitors” (Array BioPharma Inc., priority 2012, dated 2014):
# Test system: PMA-stimulated P90RSK(Ser380) phosphorylation in HepG2 cells
# Assay: Cellular P90RSK(Ser380) Phosphorylation Assay
# Assay type: cell-based
# Conditions: Homo sapiens, read-out: Biological Example 2 IC50 (nM), 1.5 hours compound incubation, PMA 100 ng/mL 30 minutes, normalized to GAPDH, single assay or mean of multiple assays
# Protocol: Inhibition of PMA-stimulated P90RSK(Ser380) phosphorylation was determined by the following in vitro cellular mechanistic assay, which comprises incubating cells with a compound for 1.5 hours and quantifying fluorescent pP90RSK(Ser380) signal on fixed cells and normalizing to GAPDH signal.
# HepG2 cells were obtained from ATCC and grown in DMEM supplemented with 10% fetal bovine serum. Cells were plated in 96-well plates at 35,000 cells/well and allowed to attach overnight at 37° C./5% CO2. Diluted compounds were then added at a final concentration of 0.5% DMSO. After 1.5 hours compound incubation, cells were stimulated with the addition of phorbol 12-myristate 13-acetate (“PMA”) at a final concentration of 100 ng/mL; the PMA stimulation was a 30-minute incubation at 37° C./5% CO2. After the 30-minute PMA stimulation, cells were washed with phosphate buffered saline (“PBS”) and fixed in 3.7% formaldehyde in PBS at room temperature for 15-20 minutes. This was followed by another wash in PBS and then permeabilization in 100% MeOH at room temperature for 10-15 minutes. Following the permeabilization incubation, cells were washed in PBS/0.05% Tween-20, followed by a block in Odyssey blocking buffer (LI-COR Biosciences) for at least 1 hour. […] Both secondary antibodies were used at a 1:1000 dilution. Cells were then washed and analyzed for fluorescence at both wavelengths using the Odyssey Infrared Imaging System (LI-COR Biosciences). Phosphorylated P90RSK(Ser380) signal was normalized to GAPDH signal.
row,Compound,IC50
1,"C=C(c1ccc(Cl)c(F)c1)n1ccc(-c2ccnc(Nc3ccnc(C)c3)n2)cc1=O [Example 172, 1-(1-(4-chloro-3-fluorophenyl)vinyl)-4-(2-((2-methylpyridin-4-yl)amino)pyrimidin-4-yl)pyridin-2(1H)-one]",12.9 nM
2,"C=C(c1ccc(Cl)c(F)c1)n1ccc(-c2ccnc(Nc3ccnn3CC)n2)cc1=O [Example 295, 1-(1-(4-chloro-3-fluorophenyl)vinyl)-4-(2-((1-ethyl-1H-pyrazol-5-yl)amino)pyrimidin-4-yl)pyridin-2(1H)-one]",204 nM
3,"NC[C@H](c1ccc(Cl)c(F)c1)n1ccc(-c2ccnc(NC3CCOCC3)n2)cc1=O [Example 305, (S)-1-(2-amino-1-(4-chloro-3-fluorophenyl)ethyl)-4-(2-((tetrahydro-2H-pyran-4-yl)amino)pyrimidin-4-yl)pyridin-2(1H)-one]",53 nM
4,"Cn1cc(C(c2ccc(Cl)c(Cl)c2)n2ccc(-c3nc(NC4CCOCC4)ncc3F)cc2=O)cn1 (centres unmarked) [Example 209, 1-((3,4-dichlorophenyl)(1-methyl-1H-pyrazol-4-yl)methyl)-4-(5-fluoro-2-((tetrahydro-2H-pyran-4-yl)amino)pyrimidin-4-yl)pyridin-2(1H)-one]",6.7 nM
5,"O=c1cc(-c2ccnc(NC3CCOCC3)n2)ccn1[C@H](COP(=O)(O)O)c1ccc(Cl)c(F)c1 [Example α, (S)-2-(4-chloro-3-fluorophenyl)-2-(2-oxo-4-(2-((tetrahydro-2H-pyran-4-yl)amino)pyrimidin-4-yl)pyridin-1(2H)-yl)ethyl dihydrogen phosphate]",955 nM
6,"CC[C@@H](CO)Nc1nccc(-c2ccn(C(C)c3ccc(Cl)c(F)c3)c(=O)c2)n1 (stereo partly drawn) [Example 134, 1-(1-(4-chloro-3-fluorophenyl)ethyl)-4-(2-(((S)-1-hydroxybutan-2-yl)amino)pyrimidin-4-yl)pyridin-2(1H)-one]",544 nM
7,"O=c1cc(-c2ccnc(NC3CCOCC3)n2)ccn1[C@H](COCOP(=O)(O)O)c1ccc(Cl)c(F)c1 [Example β, (S)-(2-(4-chloro-3-fluorophenyl)-2-(2-oxo-4-(2-((tetrahydro-2H-pyran-4-yl)amino)pyrimidin-4-yl)pyridin-1(2H)-yl)ethoxy)methyl dihydrogen phosphate]",99.6 nM
8,"Cc1nn(C)cc1Nc1nccc(-c2ccn(C(CO)c3ccc(Cl)c(F)c3)c(=O)c2)n1 (centres unmarked) [Example 166, 1-(1-(4-chloro-3-fluorophenyl)-2-hydroxyethyl)-4-(2-((1,3-dimethyl-1H-pyrazol-4-yl)amino)pyrimidin-4-yl)pyridin-2(1H)-one]",12.9 nM
9,"O=c1cc(-c2ccnc(N[C@@H]3CCOC[C@H]3F)n2)ccn1[C@H](CO)c1ccc(Cl)c(F)c1 [Example 3, 1-((S)-1-(4-chloro-3-fluorophenyl)-2-hydroxyethyl)-4-(2-(((3S,4R)-3-fluorotetrahydro-2H-pyran-4-yl)amino)pyrimidin-4-yl)pyridin-2(1H)-one]",40.3 nM
10,"Cn1nccc1Nc1nccc(-c2ccn([C@H](CO)c3ccc(Cl)c(F)c3)c(=O)c2)n1 [Example 39, (S)-1-(1-(4-chloro-3-fluorophenyl)-2-hydroxyethyl)-4-(2-((1-methyl-1H-pyrazol-5-yl)amino)pyrimidin-4-yl)pyridin-2(1H)-one]",15.5 nM
11,"O=c1cc(-c2ccnc(N[C@@H]3C[C@@H]4C[C@H]3CO4)n2)ccn1[C@H](CO)c1ccc(Cl)c(F)c1 [Example 42, 4-(2-((1S,4R,5R)-2-oxabicyclo[2.2.1]heptan-5-ylamino)pyrimidin-4-yl)-1-((S)-1-(4-chloro-3-fluorophenyl)-2-hydroxyethyl)pyridin-2(1H)-one]",74 nM
12,"CC(=O)OC[C@H](c1ccc(Cl)c(F)c1)n1ccc(-c2ccnc(Nc3ccnn3C)n2)cc1=O [Example 293, (S)-2-(4-chloro-3-fluorophenyl)-2-(4-(2-((1-methyl-1H-pyrazol-5-yl)amino)pyrimidin-4-yl)-2-oxopyridin-1(2H)-yl)ethyl acetate]",16.8 nM
13,"O=c1cc(-c2ccnc(NC3CCOCC3)n2)ccn1CCc1ccc(OC(F)(F)F)cc1 [Example 157, 4-(2-((tetrahydro-2H-pyran-4-yl)amino)pyrimidin-4-yl)-1-(4-(trifluoromethoxy)phenethyl)pyridin-2(1H)-one]",46.3 nM
14,"O=c1cc(-c2ccnc(NC3CCOCC3)n2)ccn1Cc1cc2ccc(Cl)cc2[nH]1 [Example 250, 1-((6-chloro-1H-indol-2-yl)methyl)-4-(2-((tetrahydro-2H-pyran-4-yl)amino)pyrimidin-4-yl)pyridin-2(1H)-one]",15.2 nM
15,"Cc1nc[nH]c1Nc1nccc(-c2ccn([C@H](CO)c3ccc(Cl)c(F)c3)c(=O)c2)n1 [Example 185, (S)-1-(1-(4-chloro-3-fluorophenyl)-2-hydroxyethyl)-4-(2-((4-methyl-1H-imidazol-5-yl)amino)pyrimidin-4-yl)pyridin-2(1H)-one]",19.6 nM
16,"Cc1cc(Nc2nccc(-c3ccn([C@H](CO)c4ccc(Cl)c(F)c4)c(=O)c3)n2)n(C)n1 [Example 167, (S)-1-(1-(4-chloro-3-fluorophenyl)-2-hydroxyethyl)-4-(2-((1,3-dimethyl-1H-pyrazol-5-yl)amino)pyrimidin-4-yl)pyridin-2(1H)-one]",100 nM
17,"O=c1cc(-c2ccnc(N[C@H]3CCOC[C@H]3F)n2)ccn1[C@H](CO)c1ccc(Cl)c(Cl)c1 [Example 4, 1-((S)-1-(3,4-dichlorophenyl)-2-hydroxyethyl)-4-(2-(((3S,4S)-3-fluorotetrahydro-2H-pyran-4-yl)amino)pyrimidin-4-yl)pyridin-2(1H)-one]",8.5 nM
18,"O=c1cc(-c2ccnc(NC3CCOCC3)n2)ccn1[C@H](CO)c1cc2cc(F)ccc2[nH]1 [Example 291, (S)-1-(1-(5-fluoro-1H-indol-2-yl)-2-hydroxyethyl)-4-(2-((tetrahydro-2H-pyran-4-yl)amino)pyrimidin-4-yl)pyridin-2(1H)-one]",55.9 nM
19,"O=c1cc(-c2ccnc(NC3CCOCC3)n2)ccn1[C@H](CO)c1ccc(Cl)c(F)c1 [Example 1, (S)-1-(1-(4-chloro-3-fluorophenyl)-2-hydroxyethyl)-4-(2-((tetrahydro-2H-pyran-4-yl)amino)pyrimidin-4-yl)pyridin-2(1H)-one]",31.9 nM
20,"CCc1nccc(Nc2nccc(-c3ccn(C(CO)c4ccc(Cl)c(F)c4)c(=O)c3)n2)n1 (centres unmarked) [Example 139, 1-(1-(4-chloro-3-fluorophenyl)-2-hydroxyethyl)-4-(2-((2-ethylpyrimidin-4-yl)amino)pyrimidin-4-yl)pyridin-2(1H)-one]",372 nM
21,"COc1ccc([C@@H]([C@H]2CCCN2)n2ccc(-c3ccnc(NC4CCOCC4)n3)cc2=O)cc1F [Example 50, 1-((S)-(3-fluoro-4-methoxyphenyl)((R)-pyrrolidin-2-yl)methyl)-4-(2-((tetrahydro-2H-pyran-4-yl)amino)pyrimidin-4-yl)pyridin-2(1H)-one]",292 nM
22,"O=c1cc(-c2ccnc(NC3CCOCC3)n2)ccn1[C@H](CO)c1cccc(Cl)c1 [Example 57, (S)-1-(1-(3-chlorophenyl)-2-hydroxyethyl)-4-(2-((tetrahydro-2H-pyran-4-yl)amino)pyrimidin-4-yl)pyridin-2(1H)-one]",1770 nM
23,"O=c1cc(-c2ccnc(N[C@H]3CCOC[C@H]3F)n2)ccn1[C@H](CO)c1ccc(Cl)c(F)c1 [Example 2, 1-((S)-1-(4-chloro-3-fluorophenyl)-2-hydroxyethyl)-4-(2(((3S,4S)-3-fluorotetrahydro-2H-pyran-4-yl)amino)pyrimidin-4-yl)pyridin-2(1H)-one]",59.1 nM
